According to US20150191469A1, “COMPOUNDS AND METHODS FOR TREATING HIV” (priority 2012, published 2015):
pIC50: −log10 of the molar value.

tested on: HIV; assay: MT4 assay: antiviral HIV activity (cell protection, cell titer glo readout at 96 hours); format: cell-based; settings: Human immunodeficiency virus 1, MT4, 96 h, MT4 cells, cell titer glo readout at 96 hours, 10 point dose response; read-out: HIV MT4 Assay IC50
In short: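 MT-4 cells infected with HIV, with inhibition readout by CellTiter-Glo luminescence at 96 h relative to no-compound control. Cytotoxicity measured in parallel under the same conditions. IC50 from a 10-point, 3-4-fold dilution series spanning >1000-fold, fitted with a four-parameter logistic equation.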

`Cc1nc2c(cc(-c3nnc(N4CCN5CCC[C@H]5C4)o3)n2C)c(-c2cc(F)c3c(c2C)CCCO3)c1[C@H](OC(C)(C)C)C(=O)O` [Example 348] and `Cc1nc2c(cc(-c3nc(N4CCN5CCC[C@@H]5C4)ns3)n2C)c(-c2cc(F)c3c(c2C)CCCO3)c1[C@H](OC(C)(C)C)C(=O)O` [Example 381] are within 0.2 log units of each other in pIC50: 8.51 for the first, 8.57 for the second.

Compared with `COC[C@@H]1CCCN1c1nnc(-c2cc3c(-c4cc(F)c5c(c4C)CCCO5)c([C@H](OC(C)(C)C)C(=O)O)c(C)nc3n2C)o1` [Example 349], `COC[C@@H]1CCCN1c1nsc(-c2cc3c(-c4cc(F)c5c(c4C)CCCO5)c([C@H](OC(C)(C)C)C(=O)O)c(C)nc3n2C)n1` [Example 404] is 0.63 log units lower in pIC50: 8.52 for the first, 7.89 for the second. The first is the more potent here.

First: Cc1nc2c(cc(-c3nnc(N4CCCOCC4)o3)n2C)c(-c2cc(F)c3c(c2C)CCCO3)c1[C@H](OC(C)(C)C)C(=O)O [Example 350]
Second: Cc1nc2c(cc(-c3nnc(N4CCOC(C)(C)C4)o3)n2C)c(-c2cc(F)c3c(c2C)CCCO3)c1[C@H](OC(C)(C)C)C(=O)O [Example 352]
The pIC50 of the first is 0.34 log units lower: 7.92 for the first, 8.26 for the second.

First: Cc1nc2c(cc(-c3nnc(N4C[C@H](C)O[C@@H](C)C4)o3)n2C)c(-c2cc(F)c3c(c2C)CCCO3)c1[C@H](OC(C)(C)C)C(=O)O [Example 351]
Second: Cc1nc2c(cc(-c3nnc(N4CC5CCC(C4)O5)o3)n2C)c(-c2cc(F)c3c(c2C)CCCO3)c1[C@H](OC(C)(C)C)C(=O)O [Example 353]
The pIC50 of the first is 0.55 log units higher: 8.70 for the first, 8.15 for the second. The first is the more potent here.

First: Cc1nc2c(cc(-c3cc(N4CCN(C5CCOCC5)CC4)ncn3)n2C)c(-c2cc(F)c3c(c2C)CCCO3)c1[C@H](OC(C)(C)C)C(=O)O [Example 359]
Second: Cc1nc2c(cc(-c3cncc(N4CCN(C5CCOCC5)CC4)n3)n2C)c(-c2cc(F)c3c(c2C)CCCO3)c1[C@H](OC(C)(C)C)C(=O)O [Example 360]
The pIC50 of the first is 0.88 log units higher: 8.39 for the first, 7.51 for the second.

First: Cc1nc2c(cc(-c3cncc(N4CCN(C5CCOCC5)CC4)c3)n2C)c(-c2cc(F)c3c(c2C)CCCO3)c1[C@H](OC(C)(C)C)C(=O)O [Example 361]
Second: Cc1nc2c(cc(-c3cc(N4CCN(C5CCOCC5)CC4)ccn3)n2C)c(-c2cc(F)c3c(c2C)CCCO3)c1[C@H](OC(C)(C)C)C(=O)O [Example 362]
The pIC50 of the first is 0.41 log units lower: 7.83 for the first, 8.24 for the second. The second is the more potent here.

Compared with `Cc1nc2c(cc(-c3ccnc(N4CCN(C5CCOCC5)CC4)n3)n2C)c(-c2cc(F)c3c(c2C)CCCO3)c1[C@H](OC(C)(C)C)C(=O)O` [Example 363], `Cc1nc2c(cc(-c3csc(N4CCN(C5CCOCC5)CC4)n3)n2C)c(-c2cc(F)c3c(c2C)CCCO3)c1[C@H](OC(C)(C)C)C(=O)O` [Example 408] is 0.57 log units higher in pIC50: 8.00 for the first, 8.57 for the second. The second is the more potent here.

First: Cc1nc2c(cc(-c3cc(NCCN4CCOCC4)ncn3)n2C)c(-c2cc(F)c3c(c2C)CCCO3)c1[C@H](OC(C)(C)C)C(=O)O [Example 365]
Second: Cc1nc2c(cc(-c3cc(NCCC(C)(C)C)ncn3)n2C)c(-c2cc(F)c3c(c2C)CCCO3)c1[C@H](OC(C)(C)C)C(=O)O [Example 366]
The pIC50 of the first is 0.76 log units lower: 7.06 for the first, 7.82 for the second.

Going from `Cc1nc2c(cc(-c3nsc(N4CCNCC4)n3)n2C)c(-c2cc(F)c3c(c2C)CCCO3)c1[C@H](OC(C)(C)C)C(=O)O` [Example 367] to `Cc1nc2c(cc(-c3nsc(N4CCCCC4)n3)n2C)c(-c2cc(F)c3c(c2C)CCCO3)c1[C@H](OC(C)(C)C)C(=O)O` [Example 370], the pIC50 rises from 7.76 to 8.02 (0.26 log units). The second is the more potent here.

First: Cc1nc2c(cc(-c3nc(N4CCCCC4)ns3)n2C)c(-c2cc(F)c3c(c2C)CCCO3)c1[C@H](OC(C)(C)C)C(=O)O [Example 368]
Second: Cc1nc2c(cc(-c3nc(N4CCC4)ns3)n2C)c(-c2cc(F)c3c(c2C)CCCO3)c1[C@H](OC(C)(C)C)C(=O)O [Example 403]
The pIC50 of the first is 0.49 log units lower: 7.40 for the first, 7.89 for the second. The second is the more potent here.

`Cc1nc2c(cc(-c3nc(N4CCN(C)CC4)ns3)n2C)c(-c2cc(F)c3c(c2C)CCCO3)c1[C@H](OC(C)(C)C)C(=O)O` [Example 369] and `Cc1nc2c(cc(-c3nc(N4CCCN(C)CC4)ns3)n2C)c(-c2cc(F)c3c(c2C)CCCO3)c1[C@H](OC(C)(C)C)C(=O)O` [Example 398] are within 0.2 log units of each other in pIC50: 7.95 for the first, 7.87 for the second.

Compared with `Cc1nc2c(cc(-c3nsc(N4CCN(C)CC4)n3)n2C)c(-c2cc(F)c3c(c2C)CCCO3)c1[C@H](OC(C)(C)C)C(=O)O` [Example 371], `Cc1nc2c(cc(-c3nsc(N4CCN(C5CC5)CC4)n3)n2C)c(-c2cc(F)c3c(c2C)CCCO3)c1[C@H](OC(C)(C)C)C(=O)O` [Example 373] is 0.20 log units higher in pIC50: 8.08 for the first, 8.28 for the second.

`Cc1nc2c(cc(-c3nc(N4CCC(C)CC4)ns3)n2C)c(-c2cc(F)c3c(c2C)CCCO3)c1[C@H](OC(C)(C)C)C(=O)O` [Example 372] and `Cc1nc2c(cc(-c3nc(N4CCC(F)CC4)ns3)n2C)c(-c2cc(F)c3c(c2C)CCCO3)c1[C@H](OC(C)(C)C)C(=O)O` [Example 399] are within 0.2 log units of each other in pIC50: 7.44 for the first, 7.54 for the second.

Going from `Cc1nc2c(cc(-c3nsc(N4CCC(C)CC4)n3)n2C)c(-c2cc(F)c3c(c2C)CCCO3)c1[C@H](OC(C)(C)C)C(=O)O` [Example 374] to `Cc1nc2c(cc(-c3nsc(N4CCN(C5CCOCC5)CC4)n3)n2C)c(-c2cc(F)c3c(c2C)CCCO3)c1[C@H](OC(C)(C)C)C(=O)O` [Example 375], the pIC50 rises from 7.97 to 8.82 (0.85 log units).

`Cc1nc2c(cc(-c3nnc(N4CCN(C5CCOCC5)CC4)s3)n2C)c(-c2cc(F)c3c(c2C)CCCO3)c1[C@H](OC(C)(C)C)C(=O)O` [Example 376] and `Cc1nc2c(cc(-c3nc(N4CCN(C5CC5)CC4)ns3)n2C)c(-c2cc(F)c3c(c2C)CCCO3)c1[C@H](OC(C)(C)C)C(=O)O` [Example 385] are within 0.2 log units of each other in pIC50: 7.84 for the first, 8.00 for the second.

`Cc1nc2c(cc(-c3nc(N4CCC5(CC4)OCCO5)ns3)n2C)c(-c2cc(F)c3c(c2C)CCCO3)c1[C@H](OC(C)(C)C)C(=O)O` [Example 377] and `Cc1nc2c(cc(-c3nc(N4CCN(CC5CC5)CC4)ns3)n2C)c(-c2cc(F)c3c(c2C)CCCO3)c1[C@H](OC(C)(C)C)C(=O)O` [Example 386] are the same in pIC50: 8.23 for the first, 8.23 for the second.

Going from `Cc1nc2c(cc(-c3nc(N4CCN(C5CCOCC5)C[C@H]4C)ns3)n2C)c(-c2cc(F)c3c(c2C)CCCO3)c1[C@H](OC(C)(C)C)C(=O)O` [Example 378] to `Cc1nc2c(cc(-c3nc(N4CCC(N5CCOCC5)CC4)ns3)n2C)c(-c2cc(F)c3c(c2C)CCCO3)c1[C@H](OC(C)(C)C)C(=O)O` [Example 380], the pIC50 rises from 8.39 to 8.80 (0.41 log units). The second is the more potent here.

First: Cc1nc2c(cc(-c3nc(N4CCN5CCC[C@H]5C4)ns3)n2C)c(-c2cc(F)c3c(c2C)CCCO3)c1[C@H](OC(C)(C)C)C(=O)O [Example 383]
Second: Cc1nc2c(cc(-c3nc(N4CCC(N5CCCC5)CC4)ns3)n2C)c(-c2cc(F)c3c(c2C)CCCO3)c1[C@H](OC(C)(C)C)C(=O)O [Example 402]
The pIC50 of the first is 0.57 log units higher: 8.39 for the first, 7.82 for the second.

Compared with `Cc1nc2c(cc(-c3nc(N4CCN(C(=O)N5CCCCC5)CC4)ns3)n2C)c(-c2cc(F)c3c(c2C)CCCO3)c1[C@H](OC(C)(C)C)C(=O)O` [Example 384], `Cc1nc2c(cc(-c3nc(N4CCN(C(=O)N5CCOCC5)CC4)ns3)n2C)c(-c2cc(F)c3c(c2C)CCCO3)c1[C@H](OC(C)(C)C)C(=O)O` [Example 388] is 0.26 log units lower in pIC50: 8.29 for the first, 8.03 for the second.

`Cc1nc2c(cc(-c3nc(N4CCC(N5CCCCC5)CC4)ns3)n2C)c(-c2cc(F)c3c(c2C)CCCO3)c1[C@H](OC(C)(C)C)C(=O)O` [Example 387] and `Cc1nc2c(cc(-c3nc(N4CCC(N5CCN(C)CC5)CC4)ns3)n2C)c(-c2cc(F)c3c(c2C)CCCO3)c1[C@H](OC(C)(C)C)C(=O)O` [Example 389] are within 0.2 log units of each other in pIC50: 8.16 for the first, 8.25 for the second.

First: Cc1nc2c(cc(-c3nc(N4CCN(CC5CCOCC5)CC4)ns3)n2C)c(-c2cc(F)c3c(c2C)CCCO3)c1[C@H](OC(C)(C)C)C(=O)O [Example 390]
Second: Cc1nc2c(cc(-c3nc(N4CCN(C(=O)C5CCOCC5)CC4)ns3)n2C)c(-c2cc(F)c3c(c2C)CCCO3)c1[C@H](OC(C)(C)C)C(=O)O [Example 391]
The pIC50 of the first is 0.42 log units higher: 8.27 for the first, 7.85 for the second.

Compared with `Cc1nc2c(cc(-c3nc(N4CCN(S(=O)(=O)N5CCOCC5)CC4)ns3)n2C)c(-c2cc(F)c3c(c2C)CCCO3)c1[C@H](OC(C)(C)C)C(=O)O` [Example 392], `Cc1nc2c(cc(-c3nc(N4CCN(S(=O)(=O)N5CCCCC5)CC4)ns3)n2C)c(-c2cc(F)c3c(c2C)CCCO3)c1[C@H](OC(C)(C)C)C(=O)O` [Example 394] is 0.52 log units lower in pIC50: 8.31 for the first, 7.79 for the second. The first is the more potent here.

`Cc1nc2c(cc(-c3nc(N4CCN(S(=O)(=O)C5CCOCC5)CC4)ns3)n2C)c(-c2cc(F)c3c(c2C)CCCO3)c1[C@H](OC(C)(C)C)C(=O)O` [Example 393] and `Cc1nc2c(cc(-c3nc(N4CCN(CCN5CCOCC5)CC4)ns3)n2C)c(-c2cc(F)c3c(c2C)CCCO3)c1[C@H](OC(C)(C)C)C(=O)O` [Example 405] are within 0.2 log units of each other in pIC50: 8.38 for the first, 8.57 for the second.

`COC1CCN(c2nsc(-c3cc4c(-c5cc(F)c6c(c5C)CCCO6)c([C@H](OC(C)(C)C)C(=O)O)c(C)nc4n3C)n2)CC1` [Example 395] and `Cc1nc2c(cc(-c3nc(N4CCC(N(C)C)CC4)ns3)n2C)c(-c2cc(F)c3c(c2C)CCCO3)c1[C@H](OC(C)(C)C)C(=O)O` [Example 396] are within 0.2 log units of each other in pIC50: 7.88 for the first, 7.81 for the second.

Compared with `Cc1nc2c(cc(-c3nc(N4CCN(C(C)C)CC4)ns3)n2C)c(-c2cc(F)c3c(c2C)CCCO3)c1[C@H](OC(C)(C)C)C(=O)O` [Example 400], `Cc1nc2c(cc(-c3nc(N4CC[C@@H](N(C)C)C4)ns3)n2C)c(-c2cc(F)c3c(c2C)CCCO3)c1[C@H](OC(C)(C)C)C(=O)O` [Example 401] is 0.31 log units lower in pIC50: 8.20 for the first, 7.89 for the second.

`Cc1nc2c(cc(-c3nc(NCCS(C)(=O)=O)ns3)n2C)c(-c2cc(F)c3c(c2C)CCCO3)c1[C@H](OC(C)(C)C)C(=O)O` [Example 406] and `Cc1nc2c(cc(-c3nc(NC4CCOCC4)ns3)n2C)c(-c2cc(F)c3c(c2C)CCCO3)c1[C@H](OC(C)(C)C)C(=O)O` [Example 407] are within 0.2 log units of each other in pIC50: 7.41 for the first, 7.60 for the second.

Going from `Cc1nc2c(cc(/C=C/C(=O)NCC3CCCCC3)n2C)c(-c2cc(F)c3c(c2C)CCCO3)c1[C@H](OC(C)(C)C)C(=O)O` [Example 414] to `Cc1nc2c(cc(/C=C/C(=O)NCC3CC3)n2C)c(-c2cc(F)c3c(c2C)CCCO3)c1[C@H](OC(C)(C)C)C(=O)O` [Example 415], the pIC50 falls from 7.77 to 7.40 (0.37 log units). The first is the more potent here.

same assay, conditions: MT4 cells, cell titer glo readout at 96 hours, 10 point dose response; read-out: HIV MT4 Assay IC50

In the case of `Cc1nc2c(cc(-c3nc(N4CCN(C5CCOCC5)CC4)ns3)n2C)c(-c2cc(F)c3c(c2C)CCCO3)c1[C@H](OC(C)(C)C)C(=O)O` [Example 379], the pIC50 was 6.68.
